Experimental data taken from patent publication US9079866B2, “Flap modulators” (JANSSEN PHARMACEUTICA NV, priority 2013, dated 2015).
Structures can show the parent of a compound that is named as a salt. Where two headings read alike, the source gives them in different places.

Key:
[1] = tested on: leukotriene pathway in human whole blood (LTB4 levels); experiment: Human whole blood assay (A23187-stimulated LTB4); assay type: cell-based; conditions: Homo sapiens, read-out: LTB4 IC50 1:1
Method in brief: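 Heparinised human whole blood diluted 1:1 in RPMI, pre-incubated 15 min at 37° Celsius with compound, then stimulated with A23187 (7 μg/mL) for 30 min at 37° Celsius. Plasma LTB4 measured by immunoassay kit; IC50 from 4-parameter fit; single replicate per plate, at least one healthy donor.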

[2] = biological target: human FLAP (Homo sapiens (Human), UniProt P20292); experiment: FLAP binding assay (HTRF format); conditions: HTRF format
human FLAP, sequence (P20292 whole entry): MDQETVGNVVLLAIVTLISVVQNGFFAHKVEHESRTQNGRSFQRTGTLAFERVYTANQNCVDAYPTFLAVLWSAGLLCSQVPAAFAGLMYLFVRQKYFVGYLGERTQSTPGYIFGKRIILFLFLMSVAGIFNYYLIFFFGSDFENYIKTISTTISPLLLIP
Method in brief: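 Read-out is the HTRF ratio. Each reported figure averages two assay plates on which samples were tested in duplicate.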

[3] = human whole blood diluted 1:1, A23187-stimulated
[4] = human whole blood diluted 1:1 in RPMI, A23187-stimulated LTB4
[5] = human FLAP wild type, average of two plates, duplicates

Compound | IC50 [1, 3] [nM] | Ki ([2]; wild type FLAP) [nM] | IC50 [1, 4] [nM] | Ki [2, 5] [nM]
CCNS(=O)(=O)c1cc(C(F)(F)F)ccc1-c1ccc(-c2ncc(N)nc2C#N)c(F)c1 [Example 713, 4′-(5-Amino-3-cyanopyrazin-2-yl)-N-ethyl-3′-fluoro-4-(trifluoromethyl)-[1,1′-biphenyl]-2-sulfonamide] | 53.4 | 1.7 | – | –
CN([C@@H]1CCCNC1)S(=O)(=O)c1ccccc1-c1ccc(-c2cnc(N)cn2)c(F)c1 [Example 114, (R)-4′-(5-Aminopyrazin-2-yl)-3′-fluoro-N-methyl-N-piperidin-3-ylbiphenyl-2-sulfonamide] | – | – | 221 | 12
Nc1ccc(-c2ccc(-c3ccccc3S(=O)(=O)N3C[C@@H]4C[C@H]3CO4)cc2F)cn1 [Example 663, 5-(2′-((1S,4S)-2-Oxa-5-azabicyclo[2.2.1]heptan-5-ylsulfonyl)-3-fluoro-[1,1′-biphenyl]-4-yl)pyridin-2-amine] | 34.7 | 5.8 | – | –
NC[C@H]1CCCN1S(=O)(=O)c1ccccc1-c1ccc(-c2cnc(N)cn2)c(F)c1 (stereo in doubt) [Example 94, 5-(2′-{[2-(Aminomethyl)pyrrolidin-1-yl]sulfonyl}-3-fluorobiphenyl-4-yl)pyrazin-2-amine] | – | – | 235 | 76
C[C@H](NC(=O)c1ccccc1-c1ccc(-c2cnc(N)cn2)c(F)c1)C(F)(F)F [Example 505, 4′-(5-Aminopyrazin-2-yl)-3′-fluoro-N-[(1S)-2,2,2-trifluoro-1-methylethyl]biphenyl-2-carboxamide] | 71 | 18 | – | –
CC(C)(NS(=O)(=O)c1ccccc1-c1ccc(-c2ccc(N)nc2)c(F)c1)C(F)(F)F [Example 350, 4′-(6-Aminopyridin-3-yl)-3′-fluoro-N-(1,1,1-trifluoro-2-methylpropan-2-yl)-[1,1′-biphenyl]-2-sulfonamide] | – | – | 26 | 2
Nc1cnc(-c2ccc(-c3ccccc3Oc3nccc(C(F)(F)F)n3)cc2F)cn1 [Example 612, 5-(3-Fluoro-2′-{[4-(trifluoromethyl)pyrimidin-2-yl]oxy}biphenyl-4-yl)pyrazin-2-amine] | 42 | 14.6 | – | –
C[C@H]1CNCCN1S(=O)(=O)c1ccccc1-c1ccc(-c2cnc(N)nc2)c(F)c1 [Example 253, 5-(3-Fluoro-2′-{[(2S)-2-methylpiperazin-1-yl]sulfonyl}biphenyl-4-yl)pyrimidin-2-amine] | – | – | 191 | 134
CNC(=O)C1CN(S(=O)(=O)c2ccccc2-c2ccc(-c3cnc(N)nc3)c(F)c2)C1 [Example 705, 1-{[4′-(2-Aminopyrimidin-5-yl)-3′-fluorobiphenyl-2-yl]sulfonyl}-N-methylazetidine-3-carboxamide] | 289 | 86.9 | – | –
Cc1nc(N)ncc1-c1ccc(-c2ccccc2S(=O)(=O)NC(C)(C)C)cc1F [Example 454, 4-′-(2-Amino-4-methylpyrimidin-5-yl)-N-tert-butyl-3′-fluorobiphenyl-2-sulfonamide trifluoroacetic acid salt] | 345 | 12 | – | –
CC(C)C[C@@H](CO)NS(=O)(=O)c1ccccc1-c1ccc(-c2cnc(N)cn2)c(F)c1 [Example 79, 4′-(5-Aminopyrazin-2-yl)-3′-fluoro-N-[(1S)-1-(hydroxymethyl)-3-methylbutyl]biphenyl-2-sulfonamide] | – | – | 150 | 5
CC(C)[C@H](CO)NS(=O)(=O)c1ccccc1-c1ccc(-c2cnc(N)nc2)c(F)c1 [Example 273, 4′-(2-Aminopyrimidin-5-yl)-3′-fluoro-N-[(1R)-1-(hydroxymethyl)-2-methylpropyl]biphenyl-2-sulfonamide trifluoroacetic acid salt] | – | – | 105 | 9
Nc1cnc(-c2ccc(-c3ccccc3NS(=O)(=O)C3CCC3)cc2F)cn1 [Example 40, N-(4′-(5-Aminopyrazin-2-yl)-3′-fluoro-[1,1′-biphenyl]-2-yl)cyclobutanesulfonamide] | – | – | 112 | 14
NC(=O)C1(S(=O)(=O)c2ccccc2-c2ccc(-c3cnc(N)nc3)c(F)c2)CCCC1 [Example 739, 1-{[4′-(2-Aminopyrimidin-5-yl)-3′-fluorobiphenyl-2-yl]sulfonyl}cyclopentanecarboxamide] | 1110 | 370 | – | –
Nc1cnc(-c2ccc(-c3cccnc3S(=O)(=O)CCN3CCOCC3)cc2F)cn1 [Example 822, 5-(2-Fluoro-4-(2-((2-morpholinoethyl)sulfonyl)pyridine-3-yl)phenyl)pyrazin-2-amine] | 99.1 | 280 | – | –
Nc1ncc(-c2ccc(-c3ccccc3S(=O)(=O)NC3CC3)cc2F)cn1 [Example 284, 4′-(2-Aminopyrimidin-5-yl)-N-cyclopropyl-3′-fluorobiphenyl-2-sulfonamide trifluoroacetic acid salt] | – | – | 1040 | 42
Nc1cnc(-c2ccc(-c3ccccc3S(=O)(=O)N3CCC(CO)CC3)cc2F)cn1 [Example 68, (1-{[4′-(5-Aminopyrazin-2-yl)-3′-fluorobiphenyl-2-yl]sulfonyl}piperidin-4-yl)methanol] | – | – | 6 | 1
CC(C)(C)NS(=O)(=O)c1ccccc1-c1ccc(-c2cnc(N)c(N)c2)c(F)c1 [Example 448, N-tert-Butyl-4′-(5,6-diaminopyridin-3-yl)-3′-fluorobiphenyl-2-sulfonamide] | 112 | 10 | – | –
CC(C)(C)NS(=O)(=O)c1ccccc1-c1ccc(-c2ccc(N)nc2C#N)c(F)c1 [Example 437, 4′-(6-Amino-2-cyanopyridin-3-yl)-N-(tert-butyl)-3′-fluoro-[1,1′-biphenyl]-2-sulfonamide] | 381 | 23 | – | –
Nc1cnc(-c2ccc(-c3ccccc3S(=O)(=O)N3CCC(O)CC3)cc2F)cn1 [Example 67, 1-{[4′-(5-Aminopyrazin-2-yl)-3′-fluorobiphenyl-2-yl]sulfonyl}piperidin-4-ol] | – | – | 12 | 3
COc1cc(-c2ccccc2S(=O)(=O)NC(C)(C)C)ccc1-c1cnc(N)cn1 [Example 570, 4′-(5-Aminopyrazin-2-yl)-N-tert-butyl-3′-methoxybiphenyl-2-sulfonamide] | 1180 | 35 | – | –
Nc1cnc(-c2ccc(-c3ccccc3S(=O)(=O)N[C@H]3CCCC[C@@H]3O)cc2F)cn1 [Example 162, 4′-(5-Aminopyrazin-2-yl)-3′-fluoro-N-((1S,2S)-2-hydroxycyclohexyl)-[1,1′-biphenyl]-2-sulfonamide] | – | – | 122 | 5
Nc1cnc(-c2ccc(-c3ccccc3CSc3ccncn3)cc2F)cn1 [Example 243, 5-(3-Fluoro-2′-((pyrimidin-4-ylthio)methyl)-[1,1′-biphenyl]-4-yl)pyrazin-2-amine hydrochloride] | – | – | 120 | 3
Nc1cnc(-c2ccc(-c3ccccc3CS(=O)(=O)c3ncccn3)cc2F)cn1 [Example 752, 5-{3-Fluoro-2′-[(pyrimidin-2-ylsulfonyl)methyl]biphenyl-4-yl}pyrazin-2-amine] | 299 | 135 | – | –
Nc1cnc(-c2ccccc2-c2ccc(-c3cnc(N)nc3)c(F)c2)cn1 [Example 841, 5-[2′-(5-Aminopyrazin-2-yl)-3-fluorobiphenyl-4-yl]pyrimidin-2-amine] | 370 | 146 | – | –
